Each block holds one compound with its values, some of them ahead of it.
What was measured:
5α-reductase = assay: Inhibition of 5α-reductase (statement, no method); format: biochemical
[1] = system: blood vessels in the dermis; assay: Vasodilation on the scalp (statement, no method)
hair follicles = assay: Cultured hair follicles: growth monitored over 14 days; format: cell-based; conditions: 2 ppm in medium
Procedure: Excess hair follicles prepared in the context of a micrograft transplantation session were collected for culturing in a medium similar to that reported in, and herein encorporated by reference, Philpott et al., Whole Hair Follicule Culture, Dermatologic Clinics 595 (Oct. 14, 1996). Said hair follicles were then individually incubated at 37° C. under an air plus CO2 (at 5%) atmosphere for 14 days. The explants were then divided into four groups: 1) a control group for the culture medium alone, 2) a positive control group which was exposed to a medium of 2 ppm Minoxidil®, 3) a test group exposed to the peptide biotinyl-GHK in a medium of 2 ppm biotinyl-GHK, and 4) a test group exposed to the peptide biotinyl-GHK in a medium of 5 ppm biotinyl-GHK. The culture medium was changed every 2 days. General morphology was observed on Day 1 and Day 14. Concomitantly, a fraction of the follicles were frozen for the purposes of conducting more advanced immunohistochemical studies. Growth in the follicles was monitored using a digital camera with images being taken on Day 0, Day 3, Day 5, Day 7, Day 11, and Day 14.

inhibitory action on the enzyme 5α-reductase (5α-reductase): strong inhibitory action
SMILES: CC1(C)CC[C@]2(C(=O)O)CC[C@]3(C)C(=CC[C@@H]4[C@@]5(C)CC[C@H](O)C(C)(C)[C@@H]5CC[C@]43C)[C@@H]2C1 [oleanolic acid]

SMILES: O=c1cc(-c2ccc(O)cc2)oc2cc(O)cc(O)c12 [Apigenin]
effect of use on the scalp on blood vessels [1]: dilates the blood vessels in the dermis

SMILES: Nc1cc(N2CCCCC2)nc(N)[n+]1[O-] [Minoxidil®, Minoxidil, reference compound]
more growth than observed from the control group (hair follicles): 58%

Source: patent US20110201562A1, “FORMULATIONS AND METHOD FOR TREATING BALDNESS” (SEDERMA, priority 2005, published 2011)
